{"source": "patent US10570463B2", "about": "“Nucleic acid modifying agents and uses thereof” (BIOTIUM, INC., priority 2014, dated 2020)", "key": {"[1]": {"tested_on": "Staphylococcus epidermidis", "test": "Viability PCR (dCt, 16S rDNA) after dye treatment and photolysis, cultured Staphylococcus epidermidis", "format": "cell-based", "conditions": "50 uM dye, 3D; for dCt, modification of DNA in live cells: live S. epidermidis, 470 nm light 15 min, FIG. 1, 2B", "experimental": "Escherichia coli, Salmonella enterica, and Bacillus subtilis were cultured in tryptic soy broth (TSB). Staphylococcus epidermidis was cultured in nutrient broth (NB). Bacteria were cultured overnight at 37° C. The following day, the absorbance of the cultures at 600 nm was measured and the cultures were diluted to OD600=1.0 in growth media. Bacteria cultures were pipetted into 1.5 mL screw-top tubes at 400 uL per tube. For dead cell samples, tubes were placed in a 95° C. heat block for 5 minutes, and then allowed to return to room temperature. PMA products (cat #40013 and 40019, Biotium) and selected compounds of the disclosure (104.1, 014, or 020, where indicated) were diluted to 2.5 mM in water, and then 8 uL was added to the bacterial culture for a final concentration of 50 uM. Cultures were incubated on a rocker in the dark at room temperature for 10 minutes, and then exposed to 470 nm wavelength light in the PMA-Lite LED device for 15 minutes. Samples were centrifuged at 5000×g for 10 minutes and the supernatant was aspirated off. DNA was then purified from bacterial pellets using the Qiagen Blood and Tissue kit and eluted in 100 uL elution buffer.\nPCR was performed using the universal primers DG74 and RW01 which amplify a 370-bp region of the 16S rDNA. Forward Primer DG74 sequence: 5′-AGG AGG TGA TCC AAC CGC A-3′. Reverse Primer RW01 sequence: 5′-AACTGGAGGAAGGTGGGGAT-3′. The following PCR mix was prepared for each sample: 12.5 uL Fast EvaGreen Master Mix (Biotium), 1 uL 5 uM primer mix, 9.5 uL water, and 2 uL isolated bacterial DNA. […] 25 sec, 72° C., acquiring fluorescence after this step. Using the Rotor-Gene Q software, normalized fluorescence and Ct values were calculated. The change in Ct (dCt) caused by a dye was calculated by subtracting the Ct of the untreated bacteria from the Ct of the dye-treated bacteria.\n(§1) Live Staphylococcus epidermidis (a gram-positive bacteria) was either left untreated, treated with one of two versions of commercial PMA products (cat #40013 and 40019, Biotium), or treated with a compound of the present disclosure (compound 104.1, 014, or 020). Viability PCR was performed and the effect of each dye was measured by determining the dCt. The dCt was calculated by subtracting the Ct of untreated sample from dye-treated sample. […]\nas §1, with “Live or dead Bacillus subtilis (FIG. 2A) or” for “Live”, “(FIG. 2B) were” for “(a gram-positive bacteria) was”, “cat #40019,” for “40019,”, “Compound 104.1.” for “a compound of the present disclosure (compound 104.1, 014, or 020).”"}, "[2]": {"tested_on": "Salmonella serovar Enteritidis", "conditions": "cited from earlier work"}, "[3]": {"tested_on": "Jurkat cells", "test": "Viability staining of live and heat-killed Jurkat cells, flow cytometry", "format": "cell-based, human", "conditions": "1 uM", "experimental": "Jurkat cells were maintained in RPMI media supplemented with 10% fetal bovine serum, 10 mM HEPES, and 1 mM sodium pyruvate. Cells were counted and diluted to 1.0×10^6 cells/mL in growth media. Cells were pelleted by centrifugation at 350×g and resuspended in PBS. Half of the cells were heat-killed by incubation in a 56° C. water bath for 45 minutes. After they had cooled to room temperature, live and dead cells were combined in a 1:1 ratio, pelleted and washed once with PBS, and resuspended in PBS at 1.0×10^6 cells/mL. Aliquots of 1 mL were pipetted into 1.5 mL microcentrifuge tubes. Working in the dark, PMA and compound 104.1 were diluted to 1 mM in water. 1 uL of the indicated compound was added to 1 mL of cells for a final concentration of 1 uM. Cells were incubated in the dark, rocking, for 10 minutes, then exposed to light in the PMA-Lite for 15 minutes. Cells were transferred to FACS tubes and pelleted. Half of the tubes were placed at 4° C. in the dark (unfixed). […]\nStained cells were analyzed by flow cytometry on a BD LSRII. For detection of PMA and compound 104.1 staining, samples were excited with the 488 nm laser, and the signal was detected in the PE-Texas Red channel. Flow cytometry data was analyzed using FlowJo software from […]. […]"}, "[4]": {"tested_on": "Jurkat cells", "test": "Viability staining of live and heat-killed Jurkat cells, fluorescence microscopy", "format": "cell-based, human", "conditions": "Cy3 filter", "experimental": "1:1 mixtures of live and heat-killed Jurkat cells were prepared and treated with PMA, as described in Example 21. The cells were transferred to a black optical bottom 96-well plate and imaged on an Olympus IX71 inverted fluorescence microscope using a Cy3 filter cube and Retiga 2000R Fast 1394 digital CCD camera with 300 msec exposure time. Imaging results are provided in FIG. 7A-D. The stained cells were either left unfixed (FIGS. 7A and B) or fixed and permeabilized (FIGS. 7C and D). Fluorescence images (FIGS. 7A and C) show stained cells, while merged fluorescence/phase contrast images (FIGS. 7B and D) show stained and unstained cells."}, "[5]": {"tested_on": "swabbed S. epidermidis", "test": "Viability PCR (dCt) in Staphylococcus epidermidis collected by swabbing", "format": "cell-based", "conditions": "live and heat-killed S. epidermidis dried on plastic and swabbed; FIG. 5", "experimental": "As in Example 16, Staphylococcus epidermidis was cultured in nutrient broth (NB) overnight at 37° C. The following day, the absorbance of the cultures at 600 nm was measured and the cultures were diluted to OD600=1.0 in growth media. For dead cell samples, bacteria were placed in a 95° C. heat block for 5 minutes, and then allowed to return to room temperature. 1200 uL of live or dead bacteria were spread separately onto sterile plastic petri dishes and air-dried for four hours. To mimic a common method of bacterial sample collection, a sterile cotton swab was moistened with NB, swabbed on the plate and swirled in a tube containing 1200 uL NB. This process was repeated 3 times each for live and dead bacteria, until most of the bacteria from the plate had been transferred into the media. 400 uL of swabbed bacteria was pipetted into tubes, and either left untreated, treated with PMA dye, or treated with Compound 014, as described in Example 16. Viability PCR was performed and the effect of each dye was measured by determining the dCt. The dCt was calculated by subtracting the Ct of untreated sample from dye-treated sample. […] The dCt values are shown above each bar."}, "[6]": {"tested_on": "relatively short amplicons", "conditions": "cited from earlier work"}, "[7]": {"tested_on": "Mycobacterium avium subspecies paratuberculosis (MAP)", "conditions": "PMA qPCR; cited from earlier work"}, "[8]": {"tested_on": "Staphylococcus aureus", "conditions": "samples collected by swabbing from surfaces; cited from earlier work"}, "[9]": {"tested_on": "Escherichia coli", "test": "Viability PCR (dCt, 16S rDNA) after dye treatment and photolysis, cultured Escherichia coli", "format": "cell-based", "conditions": "50 uM dye, compared with PMA, FIG. 3A", "experimental": "(§2) Escherichia coli, Salmonella enterica, and Bacillus subtilis were cultured in tryptic soy broth (TSB). Staphylococcus epidermidis was cultured in nutrient broth (NB). Bacteria were cultured overnight at 37° C. The following day, the absorbance of the cultures at 600 nm was measured and the cultures were diluted to OD600=1.0 in growth media. Bacteria cultures were pipetted into 1.5 mL screw-top tubes at 400 uL per tube. For dead cell samples, tubes were placed in a 95° C. heat block for 5 minutes, and then allowed to return to room temperature. […]\n(§3) PCR was performed using the universal primers DG74 and RW01 which amplify a 370-bp region of the 16S rDNA. […] 25 sec, 72° C., acquiring fluorescence after this step. Using the Rotor-Gene Q software, normalized fluorescence and Ct values were calculated. The change in Ct (dCt) caused by a dye was calculated by subtracting the Ct of the untreated bacteria from the Ct of the dye-treated bacteria.\n(§4) Live or dead Escherichia coli (FIG. 3A), Salmonella enterica (FIG. 3B), Bacillus subtilis (FIG. 3C) or Staphylococcus epidermidis (FIG. 3D) were either left untreated, treated with PMA, or treated with Compound 014. Viability PCR was performed and the effect of each dye was measured by determining the dCt. The dCt was calculated by subtracting the Ct of untreated sample from dye-treated sample. […]"}, "[10]": {"tested_on": "Bacillus subtilis", "test": "Viability PCR (dCt, 16S rDNA) after dye treatment and photolysis, cultured Bacillus subtilis", "format": "cell-based", "conditions": "50 uM dye, compared with PMA, FIG. 2A, 3C", "experimental": "as §2, §3\nas §1, with “Live or dead Bacillus subtilis (FIG. 2A) or” for “Live”, “(FIG. 2B) were” for “(a gram-positive bacteria) was”, “cat #40019,” for “40019,”, “Compound 104.1.” for “a compound of the present disclosure (compound 104.1, 014, or 020).”"}, "[11]": {"tested_on": "Salmonella enterica", "test": "Viability PCR (dCt, 16S rDNA) after dye treatment and photolysis, cultured Salmonella enterica", "format": "cell-based", "conditions": "50 uM dye, compared with PMA, FIG. 3B", "experimental": "as §2, §3, §4"}}, "note": "“Also recorded” adds a separate entry of the source."}
{"smiles": "[N-]=[N+]=Nc1ccc2c3ccc(N)cc3c(-c3ccccc3)[n+](CCCCCC(=O)NCCOCCOCCOCCOCCC(=O)N[C@@H](CS(=O)(=O)[O-])C(=O)O)c2c1", "note": "[Compound 020]", "values": [{"measurement": "dCt, modification of DNA in live cells", "setting": "[1]", "result": "little to none"}]}
{"smiles": "CC[N+](C)(CC)CCC[n+]1c(-c2ccccc2)c2cc(N=[N+]=[N-])ccc2c2ccc(N)cc21", "note": "[PMA, propidium monoazide]", "values": [{"measurement": "suppression of qPCR signal from killed bacteria", "setting": "[2]; killed Salmonella serovar Enteritidis", "result": "ineffective in suppressing qPCR signal from the killed bacteria"}, {"measurement": "entry of dye into viable cells", "setting": "[2]; viable Salmonella serovar Enteritidis", "result": "found to enter viable Salmonella serovar Enteritidis"}, {"measurement": "staining of live and dead cells after fixation and permeabilization", "setting": "[3]; 2% formaldehyde, 0.1% Triton X-100, FIG. 6B, 6D", "result": "increase in staining of live cells (loss of specificity)"}, {"measurement": "staining of live and dead cells, unfixed", "setting": "[3]; unfixed cells, 488 nm laser, PE-Texas Red channel, FIG. 6A, 6C", "result": "bright, specific staining of dead cells"}, {"measurement": "dCt, modification of DNA in live cells", "setting": "[1]", "result": "causes some modification of DNA"}, {"measurement": "fluorescence discrimination of stained and unstained cells, fixed and permeabilized", "setting": "[4]; fixed and permeabilized cells, FIG. 7C, 7D", "result": "PMA staining is retained after fixation, with clear discrimination between PMA-positive and PMA-negative cells"}, {"measurement": "fluorescence discrimination of stained and unstained cells, unfixed", "setting": "[4]; unfixed cells, FIG. 7A, 7B", "result": "greater difference in fluorescence intensity between PMA-positive and PMA-negative cells"}, {"measurement": "live/dead discrimination by dCt", "setting": "[5]", "result": "did not function well to discriminate live and dead"}, {"measurement": "effect of PMA treatment on amplification of short amplicons", "setting": "[6]", "result": "not affected by PMA treatment"}, {"measurement": "entry of dye into viable cells", "setting": "[7]", "result": "found to enter viable MAP"}, {"measurement": "determination of amount of living cells", "setting": "[8]", "result": "does not allow the determination of amount of living cells"}]}
{"smiles": "C[N+](C)(C)CCNC(=O)CCOCCOCCOCCOCCNC(=O)CCCCC[n+]1c(-c2ccccc2)c2cc(N)ccc2c2ccc(N=[N+]=[N-])cc21", "note": "[Compound 014]", "values": [{"measurement": "dCt, effect on dead cells", "setting": "[9]; heat-killed E. coli", "result": "greater effect on dead cells"}, {"measurement": "dCt, effect on live cells", "setting": "[9]; live E. coli", "result": "less of an effect on live cells"}, {"measurement": "dCt, effect on dead cells", "setting": "[1]; heat-killed S. epidermidis, compared with PMA, FIG. 2B", "result": "greater effect on dead cells"}, {"measurement": "dCt, modification of DNA in live cells", "setting": "[1]", "result": "little to none; also recorded: less of an effect on live cells"}, {"measurement": "dCt, effect on dead cells", "setting": "[10]; heat-killed B. subtilis", "result": "greater effect on dead cells"}, {"measurement": "dCt, effect on live cells", "setting": "[10]; live B. subtilis", "result": "less of an effect on live cells"}, {"measurement": "live/dead discrimination by dCt", "setting": "[5]", "result": "showed a large difference between live and dead cells"}, {"measurement": "dCt, effect on dead cells", "setting": "[11]; heat-killed S. enterica", "result": "greater effect on dead cells"}, {"measurement": "dCt, effect on live cells", "setting": "[11]; live S. enterica", "result": "less of an effect on live cells"}]}
